The results in this text go back to patent publication US20220056043A1, “NITROGEN-CONTAINING FUSED CYCLIC COMPOUND, PREPARATION METHOD THEREFOR AND USE THEREOF” (SICHUAN KELUN-BIOTECH BIOPHARMACEUTICAL CO., LTD., priority 2019, published 2022).

In one data set the target is T1, CYP2D6 (Homo sapiens, UniProt P10635).
T1 construct: purchased
Nature of the data set: CYP enzyme inhibition test, Vivid CYP2D6 Cyan Screening Kit. It counts as in vitro ADME. Conditions: for inhibitory effect on CYP2D6: conclusion in words. The method, then:
Experimental Example 6: CYP Enzyme Inhibition Test CYP450 is the most important enzyme system in drug metabolism. The enzymes involved in metabolism interact with drugs, and the most important ones are CYP1A2, CYP2D6 and CYP3A4. P450-Glo™ CYP1A2 Screening System, Vivid® CYP2D6 Cyan Screening Kit and Vivid® CYP3A4 Red Screening Kit were used in this test, and the inhibitory effects of the compounds on CYP1A2, CYP2D6 and CYP3A4 were determined according to the instructions of the kit.

The target in the next data set is T2, hTLR8 (Homo sapiens, UniProt Q9NR97).
T2 construct: host or cells: HEK-Blue hTLR8 cells
T2 sequence (Q9NR97 27-1041): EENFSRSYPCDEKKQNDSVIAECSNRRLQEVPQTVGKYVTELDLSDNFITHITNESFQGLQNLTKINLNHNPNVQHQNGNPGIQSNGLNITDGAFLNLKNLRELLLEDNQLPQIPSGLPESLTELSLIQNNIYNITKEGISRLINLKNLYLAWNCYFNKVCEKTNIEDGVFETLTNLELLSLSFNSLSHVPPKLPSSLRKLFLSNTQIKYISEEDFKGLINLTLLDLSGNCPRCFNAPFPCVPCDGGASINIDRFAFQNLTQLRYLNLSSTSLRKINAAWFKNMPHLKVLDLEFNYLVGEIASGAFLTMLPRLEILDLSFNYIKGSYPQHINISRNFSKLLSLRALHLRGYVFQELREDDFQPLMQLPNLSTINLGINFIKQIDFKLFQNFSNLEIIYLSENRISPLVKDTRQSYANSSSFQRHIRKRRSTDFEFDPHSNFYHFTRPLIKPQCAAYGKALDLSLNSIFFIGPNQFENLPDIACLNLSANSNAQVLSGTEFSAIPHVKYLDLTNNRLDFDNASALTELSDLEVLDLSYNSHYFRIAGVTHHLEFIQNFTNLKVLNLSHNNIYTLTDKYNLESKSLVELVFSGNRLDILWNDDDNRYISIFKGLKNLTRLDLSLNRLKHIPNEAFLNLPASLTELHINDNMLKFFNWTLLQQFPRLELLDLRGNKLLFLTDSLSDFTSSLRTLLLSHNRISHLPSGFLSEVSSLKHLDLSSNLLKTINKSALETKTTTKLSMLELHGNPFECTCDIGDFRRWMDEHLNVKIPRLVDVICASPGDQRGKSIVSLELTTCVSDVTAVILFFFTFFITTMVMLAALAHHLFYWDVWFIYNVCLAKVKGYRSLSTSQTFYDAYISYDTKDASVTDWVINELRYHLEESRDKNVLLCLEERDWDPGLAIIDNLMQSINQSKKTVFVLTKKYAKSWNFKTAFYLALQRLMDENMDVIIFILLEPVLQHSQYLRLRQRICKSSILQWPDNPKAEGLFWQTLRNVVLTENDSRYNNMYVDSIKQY
Nature of the data set: Agonistic effect on hTLR8, HEK-Blue hTLR8 cells, alkaline phosphatase secretion. It counts as cell-based. Conditions: 16 hours. An outline of the steps: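 HEK-Blue hTLR8 reporter cells were treated with compound (diluted from 10 mM DMSO stock) for 16 h at 37 °C in DMEM/10% FBS. Secreted alkaline phosphatase in supernatant was detected with QUANTI-Blue after 3 h at 37 °C, read at OD620. EC50 came from a four-parameter variable-slope fit.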

The target in a further data set is T3, hNLRP3 inflammasome (Homo sapiens, UniProt Q96P20).
T3 construct: endogenous in cells; host or cells: THP-1 cells, PMA-differentiated
Kind of data set: Agonistic effect on the expression of IL-1β in THP-1 cells after PMA-induced differentiation (HTRF). It counts as cell-based. Conditions: IL-1β level, PMA-differentiated THP-1 cells, 6 hours. A digest of the protocol: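 THP-1 cells differentiated with 1 μM PMA for 24 h, then replated at 1×10^5 cells/well in RPMI 1640 with 2% FBS. Compounds added for 6 h at 37 °C, 5% CO2. Supernatant IL-1β measured by HTRF; EC50 from four-parameter variable-slope fit.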

T1 sequence (P10635 whole entry): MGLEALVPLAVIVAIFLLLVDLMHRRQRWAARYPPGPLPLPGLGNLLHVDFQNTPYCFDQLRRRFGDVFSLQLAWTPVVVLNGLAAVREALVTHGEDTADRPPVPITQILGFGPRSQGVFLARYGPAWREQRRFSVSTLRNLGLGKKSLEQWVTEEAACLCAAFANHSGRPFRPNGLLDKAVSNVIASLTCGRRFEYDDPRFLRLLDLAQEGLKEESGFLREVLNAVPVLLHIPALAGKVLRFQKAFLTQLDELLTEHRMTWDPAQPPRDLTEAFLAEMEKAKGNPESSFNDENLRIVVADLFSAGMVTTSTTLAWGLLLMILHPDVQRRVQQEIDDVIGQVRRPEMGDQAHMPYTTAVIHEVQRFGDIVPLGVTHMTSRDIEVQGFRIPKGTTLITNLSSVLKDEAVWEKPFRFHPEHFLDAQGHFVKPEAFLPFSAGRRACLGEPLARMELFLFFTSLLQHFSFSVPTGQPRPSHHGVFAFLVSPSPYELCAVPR
T3 sequence (Q96P20 whole entry): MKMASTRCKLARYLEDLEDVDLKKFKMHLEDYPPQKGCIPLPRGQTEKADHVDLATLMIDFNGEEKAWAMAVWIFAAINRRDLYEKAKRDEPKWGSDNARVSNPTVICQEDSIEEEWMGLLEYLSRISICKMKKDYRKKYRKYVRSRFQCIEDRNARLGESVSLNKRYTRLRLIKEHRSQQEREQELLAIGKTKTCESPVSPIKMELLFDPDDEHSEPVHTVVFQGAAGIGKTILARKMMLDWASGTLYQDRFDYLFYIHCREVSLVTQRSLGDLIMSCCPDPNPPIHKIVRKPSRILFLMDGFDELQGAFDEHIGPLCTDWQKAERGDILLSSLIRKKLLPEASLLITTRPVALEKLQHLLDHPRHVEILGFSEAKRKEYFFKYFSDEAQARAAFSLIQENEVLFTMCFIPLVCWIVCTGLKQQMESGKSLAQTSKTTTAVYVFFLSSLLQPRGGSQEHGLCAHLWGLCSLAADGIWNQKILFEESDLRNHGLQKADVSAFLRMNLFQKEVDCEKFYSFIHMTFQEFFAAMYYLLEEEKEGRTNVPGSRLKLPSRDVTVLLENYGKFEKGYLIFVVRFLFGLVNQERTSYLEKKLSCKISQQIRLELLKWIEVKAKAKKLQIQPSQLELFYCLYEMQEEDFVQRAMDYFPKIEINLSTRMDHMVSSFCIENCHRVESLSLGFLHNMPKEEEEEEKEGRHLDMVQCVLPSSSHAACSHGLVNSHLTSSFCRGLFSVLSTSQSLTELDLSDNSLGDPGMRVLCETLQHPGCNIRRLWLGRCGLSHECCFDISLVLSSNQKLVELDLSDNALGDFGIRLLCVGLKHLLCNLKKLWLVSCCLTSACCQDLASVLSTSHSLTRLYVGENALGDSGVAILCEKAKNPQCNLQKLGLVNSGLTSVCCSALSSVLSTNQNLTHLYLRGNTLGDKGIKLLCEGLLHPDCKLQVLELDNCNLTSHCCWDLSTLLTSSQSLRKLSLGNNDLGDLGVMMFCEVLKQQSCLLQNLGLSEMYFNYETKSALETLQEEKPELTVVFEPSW

`C[C@@H]1CN(CCNc2cc(N)nc3cc(-c4ccn[nH]4)sc23)C[C@@H](C)O1` [Compound 124, N^7-(2-((2R,6R)-2,6-dimethylmorpholino)ethyl)-2-(1H-pyrazol-5-yl)thieno[3,2-b]pyridine-5,7-diamine]: on CYP2D6, the IC50 was above 10 µM and the “inhibitory effect on CYP2D6” value is “no apparent inhibitory effects”. Also, the EC50 at hTLR8 is above 100000 nM. The compound also had an EC50 at hNLRP3 inflammasome of 0.05 µM.

Compound `C[C@@H](CCO)Nc1cc(N)nc2cc(-c3ccn[nH]3)sc12` [Compound 125, (S)-3-((5-amino-2-(1H-pyrazol-5-yl)thieno[3,2-b]pyridin-7-yl)amino)butanol] had an IC50 at CYP2D6 above 10 µM. For the same compound, the “inhibitory effect on CYP2D6” value against CYP2D6 is “no apparent inhibitory effects”. Moreover, the EC50 on hTLR8 was above 100000 nM; at hNLRP3 inflammasome, 0.03 µM.

With `C[C@H](Nc1cc(N)nc2cc(-c3ccn[nH]3)sc12)c1cccc(C(F)(F)F)c1` [Compound 131, (S)-2-(1H-pyrazol-5-yl)-N^7-(1-(3-(trifluoromethyl)phenyl)ethyl)thieno[3,2-b]pyridine-5,7-diamine], the EC50 on hTLR8 is above 100000 nM; on hNLRP3 inflammasome it was 0.06 µM.
